By IC50 is commonly meant the concentration needed to halve the response being measured. A low value points to greater potency in that assay.

Numbered stars: 1 amine (or outer) side, 2 acyl side, 3 side chain; on linkers, the order of the positions; unused ones are H or OH. Square brackets hold non-standard residues; d marks the D form. Peptide text beside a SMILES is read from it. * marks the point of attachment. Abu(4,4,4-F3) = N[C@@H](CC(F)(F)F)C(=O)O; X4 = C[C@](N[*:1])(C(=O)[*:2])C(F)(F)F; NH(1-CH2NMe2-cBu) = CN(C)CC1(N*)CCC1; Gly(octyl) = CCCCCCCC[C@H](N)C(=O)O; Oxazole4CO(2-Me) = Cc1nc(C(=O)*)co1; X8 = COc1ccc2cc(C(=O)*)c(=O)oc2c1; Benzoyl(4-F) = O=C(c1ccc(F)cc1)*; hCha = N[C@@H](CCC1CCCCC1)C(=O)O; Cha = N[C@@H](CC1CCCCC1)C(=O)O; X6 = CC(C)(CN[*:1])C(=O)[*:2]; β3hL = CC(C)C[C@H](N)CC(=O)O; NHCH2CH2NMe2 = CN(C)CCN*; NHCH2CH2NHMe = CNCCN*; Aib = CC(C)(N)C(=O)O; βAla = NCCC(=O)O

The assay relates to cutaneous squamous cell carcinoma cell line SCC12. Nature of the assay: In vitro anti-proliferative assay (resazurin) in SCC12. The assay is classed as cell-based. The note with it: SCC12, 72 hours. The text has this: Methodology. The cutaneous squamous cell carcinoma cell culture SCC12 was cultivated in keratinocyte-SFM media (KSFM, Cat #17005042, Gibco) supplemented with human recombinant epidermal growth factor 1-53 (EGF 1-53) and bovine pituitary extract (BFE).
Vehicle treated wells were set to 100% viability.
As for `CC(C)C[C@H](NC(=O)[C@H](CCC1CCCCC1)NC(=O)[C@@H]1CCCN1C(=O)c1ccc(F)cc1)C(=O)NC(C)(C)C(=O)N[C@@H](CC(C)C)C(=O)N[C@@H](CC(C)C)C(=O)NC(C)(C)C(=O)NC(C)(C)C(=O)NCCC(=O)NCCN(C)C` [Compound 8343, (2S)-2-[(2S)-4-cyclohexyl-2-{[(2S)-1-(4-fluorobenzoyl)pyrrolidin-2-yl]formamido}butanamido]-N-(1-{[(1S)-1-{[(1S)-1-{[1-({1-[(2-{[2-(dimethylamino)ethyl]carbamoyl}ethyl)carbamoyl]-1-methylethyl}carbamoyl)-1-methylethyl]carbamoyl}-3-methylbutyl]carbamoyl}-3-methylbutyl]carbamoyl}-1-methylethyl)-4-methylpentanamide] ({Benzoyl(4-F)}-P[hCha]L[Aib]LL[Aib][Aib][βAla]-NHCH2CH2NMe2), half-maximal inhibition (IC50) required 0.241 µM. Compound `CN(C)CC1(NC(=O)CCNC(=O)C(C)(C)NC(=O)C(C)(C)NC(=O)[C@H](CC(F)(F)F)NC(=O)[C@H](CC(F)(F)F)NC(=O)C(C)(C)NC(=O)[C@H](CC(F)(F)F)NC(=O)[C@H](CCC2CCCCC2)NC(=O)[C@@H]2CCCN2C(=O)c2ccc(F)cc2)CCC1` [Compound 21372, (2S)-4-cyclohexyl-N-[(1S)-1-[(1-{[(1S)-1-{[(1S)-1-({1-[(1-{[2-({1-[(dimethylamino)methyl]cyclobutyl}carbamoyl)ethyl]carbamoyl}-1-methylethyl)carbamoyl]-1-methylethyl}carba-moyl)-3,3,3-trifluoropropyl]carbamoyl}-3,3,3-trifluoropropyl]carbamoyl}-1-methylethyl)carbamoyl]-3,3,3-trifluoropropyl]-2-{[(2S)-1-(4-fluorobenzoyl)pyrrolidin-2-yl]formamido}butanamide] ({Benzoyl(4-F)}-P[hCha][Abu(4,4,4-F3)][Aib][Abu(4,4,4-F3)][Abu(4,4,4-F3)][Aib][Aib][βAla]-{NH(1-CH2NMe2-cBu)}) came in with an IC50 of 0.442 µM. Next, `CC(C)C[C@H](NC(=O)[C@H](CC(C)C)NC(=O)[C@](C)(NC(=O)[C@H](CC(C)C)NC(=O)[C@H](CCC1CCCCC1)NC(=O)[C@@H]1CCCN1C(=O)c1ccc(F)cc1)C(F)(F)F)C(=O)NC(C)(C)C(=O)NC(C)(C)C(=O)NCCC(=O)NC1(CN(C)C)CCC1` [Compound 21362, (2S)-2-[(2S)-4-cyclohexyl-2-{[(2S)-1-(4-fluorobenzoyl)pyrrolidin-2-yl]formamido}butanamido]-N-[(1S)-1-{[(1S)-1-{[(1S)-1-({1-[(1-{[2-({1-[(dimethylamino)methyl]cyclobutyl}carbamoyl)ethyl]carbamoyl}-1-methylethyl)carbamoyl]-1-methylethyl}carbamoyl)-3-methylbutyl]carbamoyl}-3-methylbutyl]carbamoyl}-2,2,2-trifluoro-1-methylethyl]-4-methylpentanamide] ({Benzoyl(4-F)}-P[hCha]L[X4]LL[Aib][Aib][βAla]-{NH(1-CH2NMe2-cBu)}): 0.717 µM; `CC(C)C[C@H](NC(=O)[C@H](CC(C)C)NC(=O)C(C)(C)NC(=O)[C@H](CC(C)C)NC(=O)[C@H](CCC1CCCCC1)NC(=O)[C@@H]1CCCN1C(=O)c1ccc(F)cc1)C(=O)NC(C)(C)C(=O)NCC(C)(C)C(=O)NCCC(=O)NC1(CN(C)C)CCC1` [Compound 21164, (2S)-2-[(2S)-4-cyclohexyl-2-{[(2S)-1-(4-fluorobenzoyl)pyrrolidin-2-yl]formamido}butan-amido]-N-(1-{[(1S)-1-{[(1S)-1-({1-[(2-{[2-({1-[(dimethylamino)methyl]cyclobutyl}carba-moyl)ethyl]carbamoyl}-2,2-dimethylethyl)carbamoyl]-1-methylethyl}carbamoyl)-3-methylbutyl]carbamoyl}1-3-methylbutyl]carbamoyl}-1-methylethyl)-4-methylpentanamide] ({Benzoyl(4-F)}-P[hCha]L[Aib]LL[Aib][X6][βAla]-{NH(1-CH2NMe2-cBu)}): 0.712 µM; `COc1ccc2cc(C(=O)N3CCC[C@H]3C(=O)N[C@@H](CCC3CCCCC3)C(=O)N[C@@H](CC(C)C)C(=O)NC(C)(C)C(=O)N[C@@H](CC(C)C)C(=O)N[C@@H](CC(C)C)C(=O)NC(C)(C)C(=O)NC(C)(C)C(=O)NCCC(=O)NC3(CN(C)C)CCC3)c(=O)oc2c1` [Compound 21287, (2S)-2-[(2S)-4-cyclohexyl-2-{[(2S)-1-(7-methoxy-2-oxo-2H-chromene-3-carbonyl)pyrrolidin-2-yl]formamido}butanamido]-N-(1-{[(1S)-1-{[(1S)-1-({1-[(1-{[2-({1-[(dimethylamino)methyl]cyclobutyl}carbamoyl)ethyl]carbamoyl}-1-methylethyl)carbamoyl]-1-methylethyl}carbamoyl)-3-methylbutyl]carbamoyl}-3-methylbutyl]carbamoyl}-1-methylethyl)-4-methylpentanamide] (X8-P[hCha]L[Aib]LL[Aib][Aib][βAla]-{NH(1-CH2NMe2-cBu)}): 0.595 µM. Next, `CC(C)C[C@@H](CC(=O)NC(C)(C)C(=O)N[C@@H](CC(C)C)C(=O)N[C@@H](CC(C)C)C(=O)NC(C)(C)C(=O)NC(C)(C)C(=O)NCCC(=O)NC1(CN(C)C)CCC1)NC(=O)[C@H](CCC1CCCCC1)NC(=O)[C@@H]1CCCN1C(=O)c1ccc(F)cc1` [Compound 21314, (3S)-3-[(2S)-4-cyclohexyl-2-{[(2S)-1-(4-fluorobenzoyl)pyrrolidin-2-yl]formamido}butan-amido]-N-(1-{[(1S)-1-{[(1S)-1-({1-[(1-{[2-({1-[(dimethylamino)methyl]cyclobutyl}carba-moyl)ethyl]carbamoyl}-1-methylethyl)carbamoyl]-1-methylethyl}carbamoyl)-3-methylbutyl]carbamoyl}-3-methylbutyl]carbamoyl}-1-methylethyl)-5-methylhexanamide] ({Benzoyl(4-F)}-P[hCha][β3hL][Aib]LL[Aib][Aib][βAla]-{NH(1-CH2NMe2-cBu)}): 0.324 µM; `Cc1nc(C(=O)N2CCC[C@H]2C(=O)N[C@@H](CC2CCCCC2)C(=O)N[C@@H](CC(C)C)C(=O)NC(C)(C)C(=O)N[C@@H](CC(C)C)C(=O)N[C@@H](CC(C)C)C(=O)NC(C)(C)C(=O)NC(C)(C)C(=O)NCCC(=O)NC2(CN(C)C)CCC2)co1` [Compound 7059, (2S)-2-[(2S)-3-cyclohexyl-2-{[(2S)-1-(2-methyl-1,3-oxazole-4-carbonyl)pyrrolidin-2-yl]formamido}propanamido]-N-(1-{[(1S)-1-{[(1S)-1-({1-[(1-{[2-({1-[(dimethylamino)methyl]cyclobutyl}carbamoyl)ethyl]carbamoyl}-1-methylethyl)carbamoyl]-1-methylethyl}carbamoyl)-3-methylbutyl]carbamoyl}-3-methylbutyl]carbamoyl}-1-methylethyl)-4-methylpentanamide] ({Oxazole4CO(2-Me)}-P[Cha]L[Aib]LL[Aib][Aib][βAla]-{NH(1-CH2NMe2-cBu)}): 0.5 µM. In turn, `CC(C)C[C@H](NC(=O)[C@H](CCC1CCCCC1)NC(=O)[C@@H]1CCCN1C(=O)c1ccc(F)cc1)C(=O)NC(C)(C)C(=O)N[C@@H](CC(C)C)C(=O)N[C@@H](CC(F)(F)F)C(=O)NC(C)(C)C(=O)NC(C)(C)C(=O)NCCC(=O)NC1(CN(C)C)CCC1` [Compound 21369, (2S)-2-[(2S)-4-cyclohexyl-2-{[(2S)-1-(4-fluorobenzoyl)-pyrrolidin-2-yl]formamido}butan-amido]-N-(1-{[(1S)-1-{[(1S)-1-({1-[(1-{[2-({1-[(dimethylamino)methyl]cyclobutyl}carba-moyl)ethyl]carbamoyl}-1-methylethyl)carbamoyl]-1-methylethyl}carbamoyl)-3,3,3-trifluoropropyl]carbamoyl}-3-methylbutyl]carbamoyl}-1-methylethyl)-4-methylpentanamide] ({Benzoyl(4-F)}-P[hCha]L[Aib]L[Abu(4,4,4-F3)][Aib][Aib][βAla]-{NH(1-CH2NMe2-cBu)}) registered an IC50 of 0.167 µM.

`CC(C)C[C@H](NC(=O)CC(C)(C)NC(=O)[C@H](CC(C)C)NC(=O)[C@H](CCC1CCCCC1)NC(=O)[C@@H]1CCCN1C(=O)c1ccc(F)cc1)C(=O)N[C@@H](CC(C)C)C(=O)NC(C)(C)CC(=O)NC(C)(C)CC(=O)NCCC(=O)NC1(CN(C)C)CCC1` [Compound 21368, (2S)-2-[(2S)-4-cyclohexyl-2-{[(2S)-1-(4-fluorobenzoyl)pyrrolidin-2-yl]formamido}butan-amido]-N-(1-{[(1S)-1-{[(1S)-1-({1-[(1-{[2-({1-[(dimethylamino)methyl]cyclobutyl}carba-moyl)ethyl]carbamoyl}-2-methylpropan-2-yl)carbamoyl]-2-methylpropan-2-yl}carbamoyl)-3-methylbutyl]carbamoyl}-3-methylbutyl]carbamoyl}-2-methylpropan-2-yl)-4-methylpentanamide] returned an IC50 of over 10 µM. In turn, `CCCCCCCC[C@H](NC(=O)[C@@H]1CCCN1C(=O)c1coc(C)n1)C(=O)N[C@@H](CC(C)C)C(=O)NC(C)(C)C(=O)N[C@@H](CC(C)C)C(=O)N[C@@H](CC(C)C)C(=O)NC(C)(C)C(=O)NC(C)(C)C(=O)NCCC(=O)NCCNC` [Compound 7058, (2S)-2-{[(2S)-1-(2-methyl-1,3-oxazole-4-carbonyl)pyrrolidin-2-yl]formamido}-N-[(1S)-3-methyl-1-[(1-methyl-1-{[(1S)-3-methyl-1-{[(1S)-3-methyl-1-{[1-methyl-1-({1-methyl-1-[(2-{[2-(methylamino)ethyl]carbamoyl}ethyl)carbamoyl]ethyl}carbamoyl)ethyl]carbamoyl}butyl]carbamoyl}butyl]carbamoyl}ethyl)carbamoyl]butyl]decanamide] ({Oxazole4CO(2-Me)}-P[Gly(octyl)]L[Aib]LL[Aib][Aib][βAla]-NHCH2CH2NHMe) displayed an IC50 of 0.717 µM.

Values taken from patent US20260049101A1, “TOPICAL TREATMENT OF SKIN CANCER USING OLIGOPEPTIDES” (BACOBA AG, priority 2022, published 2026).
